One assay has as its system Entamoeba histolytica. Put plainly: Antiprotozoal activity against Entamoeba histolytica HM-1:IMSS. In kind it is functional, organism-based.
Another assay deals with Giardia intestinalis. Put plainly: Antiprotozoal activity against Giardia lamblia IMSS:1090:1. As to conditions: Giardia duodenalis. The format is functional, organism-based.

The results in this text go back to ChEMBL document CHEMBL3739326, “ent-Kaurene Glycosides from Ageratina cylindrica” (J Nat Prod, 2015).

As to `C=C1[C@@H]2CC[C@H]3[C@]4(C)CCC[C@@](C)(C(=O)O[C@@H]5O[C@H](CO)[C@@H](O)[C@H](O)[C@H]5O)[C@H]4CC[C@]3(C2)[C@@H]1O[C@H]1O[C@@H](C)[C@@H](O)[C@@H](OC(C)=O)[C@@H]1O`, the IC50 in the assay with Entamoeba histolytica is 52.7 µM; with Giardia intestinalis, 48.9 µM.

On to `C=C1[C@@H]2CC[C@H]3[C@]4(C)CCC[C@@](C)(C(=O)O)[C@H]4CC[C@]3(C2)[C@@H]1O[C@H]1O[C@@H](C)[C@@H](O)[C@@H](O)[C@@H]1O`, for which the results for the IC50 in the assay on Entamoeba histolytica and in the assay with Giardia intestinalis were 73.5 µM and 98.5 µM, respectively.

Consider `C=C1[C@@H]2CC[C@H]3[C@]4(C)CCC[C@@](C)(C(=O)O[C@@H]5O[C@H](CO)[C@@H](O)[C@H](O)[C@H]5O)[C@H]4CC[C@]3(C2)[C@@H]1O[C@H]1O[C@@H](C)[C@@H](OC(C)=O)[C@@H](O)[C@@H]1O`, for which the half-maximal inhibitory concentration (IC50) in the assay on Entamoeba histolytica came to 49.5 µM; with Giardia intestinalis, 69.5 µM.

Regarding `C=C1[C@@H]2CC[C@H]3[C@]4(C)CCC[C@@](C)(C(=O)O[C@@H]5O[C@H](CO)[C@@H](O)[C@H](O)[C@H]5O)[C@H]4CC[C@]3(C2)[C@@H]1O[C@H]1O[C@@H](C)[C@@H](O)[C@@H](O)[C@@H]1O`, the IC50 in the assay with Entamoeba histolytica turned out to be 43.3 µM; in the assay with Giardia intestinalis, 41.9 µM.
